Reference: patent US20130115256A1, “METHODS FOR TREATING OR PREVENTING VASCULAR GRAFT FAILURE” (priority 2010, published 2013)

Key:
[1] = tested on: human coronary artery endothelial cells (HCAEC); experiment: TNF-α-induced IL-6 and IL-8 expression in HCAEC (ELISA); type: cell-based; conditions: 0.5 mM MMI-0100, 24 hours after 6 hour TNF-α
Experimental: Primary human coronary artery endothelial cells (HCAEC) were cultured and seeded onto a 96-well plate, using methods described in the MTS proliferation assay above. Cells were again stimulated with 20 ng/ml of TNF-α for 6 hours and then treated with MMI-0100 (SEQ ID NO: 1) for approximately 24 hours. Supernatants were then collected and analyzed for drug effect on inflammatory cytokines.
IL-6 (Cat #: 900-K16; Lot #: 0909016) and IL-8 (Cat #: 900-K18; Lot #: 0209018) ELISA kits (Peprotech; Rocky Hill, N.J.) were used to measure levels of these cytokines from HCAEC supernatants following treatment with MMI-0100 ([…]; SEQ ID NO: 1). The Human IL-6 ELISA development kit contains the key components required for the quantitative measurement of natural and/or recombinant hIL-6 in a sandwich ELISA format within the range of 32-2000 pg/ml. Human IL-8 ELISA development kit contains the key components required for the quantitative measurement of natural and/or recombinant hIL-8 in a sandwich ELISA format within the range of 16-1000 pg/ml.
Briefly, 10 μl of supernatant was diluted with 90 μl of diluents; 3 replicates of each sample were used. Data were collected at 405 nm with correction at 650 nm on a plate reader. Each plate was monitored for 1 hour with readings taken every 5 minutes. Concentrations of IL-6 and IL-8 in test samples were determined by extrapolating from a standard curve. […]

MEK1 = target: T1, MEK1 (Homo sapiens, UniProt Q02750); experiment: MEK1 radiometric kinase assay; type: biochemical; conditions: MMI-0100 100 μM; remaining kinase activity
T1 construct: purchased Millipore (KinaseProfiler service)
Excerpt: (§1) A commercial radiometric assay service was used to test the specificity and potency of MMI-0100 ([…]; SEQ ID NO: 1) by measuring its half maximal inhibitory concentrations (IC50). This quantitative assay measures how much MK2 inhibitor (MMI-0100; […] (SEQ ID NO: 1)) is needed to inhibit 50% of a given biological process or component of a process (i.e., an enzyme, cell, or cell receptor). Specifically, in these assays, a positively charged substrate is phosphorylated with a radiolabeled phosphate group from an ATP if the kinase is not inhibited by an inhibitor peptide. The positively charged substrate then is attracted to a negatively charged filter membrane, quantified with a scintillation counter, and compared to a 100% activity control. ATP concentrations within 15 μM of the apparent Km for ATP were chosen since an ATP concentration near the Km may allow for the kinases to have the same relative amount of phosphorylation activity. The individual conditions for each radiometric assay are as follows.
The reaction was initiated by adding the MgATP. After incubation for 40 minutes at room temperature, 5 μl of this incubation mix was used to initiate the MAPK2 radiometric assay whose reaction condition was the same as the condition for p38 MAPK assay described above.
IC50 values for inhibitor peptides were determined using Millipore's IC50 Profiler Express service. […]

[2] = tested on: human endothelial cell (EC; HAEC); experiment: MTS cell proliferation assay, human endothelial cells; type: cell-based
Experimental: The CellTiter 96® AQueous Non-Radioactive Cell Proliferation Assay (Promega) was used to assess drug effects on cell proliferation according to the manufacturer's instructions. Briefly, HAECs and HASMCs from early passages were grown to 80-90% confluence in 25 cm^2 tissue culture flasks in a 37° C./5% CO2 incubator prior to harvest. 200 μl of each type of cell suspension (at 20,000 cells/cm^2) was seeded onto separate 96-well plates to yield an approximate 60% confluence per well. Cells were allowed to adhere to the plate surface overnight, followed by addition of 20 ng/ml of TNF-α to stimulate production of inflammatory agents. After a 4-6 hour incubation period, MMI-0100 peptide drug ([…]; SEQ ID NO: 1) was added and cells incubated for another 20-24 hours. Each well was then supplemented with 100 μl of fresh medium and 200 μl of CellTiter 96® AQueous One Solution Reagent and incubated for an additional 1.5-2 hours prior to measuring absorbance of each well at 490 nm with a SoftMax®-equipped plate reader.
In order to determine the effect of pharmacological doses of MMI-0100 ([…]; SEQ ID NO: 1) on human endothelial cell (EC) and smooth muscle cell (SMC) proliferation, human EC and SMC cultures were treated with three concentrations (0.25 mM, 0.5 mM, and 1 mM) of MMI-0100 ([…] (SEQ ID NO: 1)) following pre-treatment with TNF-α.

MKK6 = target: T2, MKK6 (Homo sapiens, UniProt P52564); experiment: MKK6 radiometric kinase assay; type: biochemical; conditions: MMI-0100 100 μM; remaining kinase activity
T2 construct: purchased Millipore (KinaseProfiler service)
T2 sequence (P52564 1-334): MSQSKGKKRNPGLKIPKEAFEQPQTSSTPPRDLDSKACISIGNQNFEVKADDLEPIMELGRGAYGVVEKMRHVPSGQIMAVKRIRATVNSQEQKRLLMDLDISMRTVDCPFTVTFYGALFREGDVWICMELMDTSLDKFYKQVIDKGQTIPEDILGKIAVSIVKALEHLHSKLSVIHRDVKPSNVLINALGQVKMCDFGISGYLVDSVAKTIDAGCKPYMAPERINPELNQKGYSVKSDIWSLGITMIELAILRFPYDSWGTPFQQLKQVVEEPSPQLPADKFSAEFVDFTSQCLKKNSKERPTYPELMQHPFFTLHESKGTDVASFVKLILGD
Excerpt: as §1
The reaction was initiated by adding the MgATP. After incubation for 40 minutes at room temperature, 5 μl of the incubation mix was used to initiate the p38MAPK radiometric assay described above.
IC50 values for inhibitor peptides were determined using Millipore's IC50 Profiler Express service. The IC50 value was estimated from a 10-point curve of one-half log dilutions. […]

YARAAARQARAKALARQLGVAA [MMI-0100]
TNF-α-induced IL-6 expression [1]: reduced the level of TNF-α-induced IL-6 expression to that of the untreated control | TNF-α-induced IL-8 expression [1]: no effect | Percent Activity, MEK1 (MEK1): 68% | EC proliferation compared to control (20 ng/ml TNF-α alone) ([2]; 0.25 mM MMI-0100): slightly increased | increase in EC proliferation compared to control (20 ng/ml TNF-α alone) ([2]; 0.5 mM MMI-0100): 30% | increase in EC proliferation compared to control (20 ng/ml TNF-α alone) ([2]; 1 mM MMI-0100): 11% | EC morphology, phase contrast images ([2]; 24 hours treatment): no obvious morphological changes | Percent Activity, MKK6 (MKK6): 50%
